Test results published in the NIST ThermoML archive (doi:10.1021/je201009c).

Assay: xn = mol fraction of the nth substance listed
Settings: for surface tension liquid-gas: Capillary rise; for viscosity / mass density: 100.8 kPa, Liquid; for viscosity: Falling or rolling sphere viscometry; for mass density: Vibrating tube method

OCc1ccccc1 [benzenemethanol] + CCO
Settings	mass density, 293.15 K [kg/m3]	mass density, 303.15 K [kg/m3]	surface tension liquid-gas, 293.15 K [mN/m]	surface tension liquid-gas, 303.15 K [mN/m]	viscosity, 293.15 K [mPa·s]	viscosity, 303.15 K [mPa·s]
x2 = 0	1045.44	1037.45	39.2	38.1	6.287	4.579
x2 = 0.05	1038.93	1030.91	38.7	37.5	5.903	4.276
x2 = 0.1	1032.01	1024.02	38.1	36.9	5.548	4.006
x2 = 0.1504	1024.72	1016.76	37.5	36.2	5.197	3.761
x2 = 0.1999	1017.09	1009.06	36.8	35.5	4.871	3.529
x2 = 0.2502	1008.95	1000.9	36.1	34.8	4.55	3.321
x2 = 0.3003	1000.31	992.29	35.3	34.1	4.236	3.117
x2 = 0.3499	991.24	983.16	34.5	33.3	3.94	2.924
x2 = 0.3998	981.52	973.34	33.6	32.5	3.655	2.735
x2 = 0.45	971.12	962.91	32.7	31.6	3.377	2.542
x2 = 0.5001	960.01	951.76	31.8	30.7	3.107	2.368
x2 = 0.55	948.23	939.95	30.9	29.8	2.857	2.206
x2 = 0.5999	935.57	927.33	29.9	28.8	2.623	2.03
x2 = 0.65	921.93	913.64	28.9	27.8	2.392	1.873
x2 = 0.6997	907.34	898.99	28	26.9	2.169	1.716
x2 = 0.75	891.49	883.14	27.1	26	1.971	1.568
x2 = 0.7999	874.42	865.99	26.1	25.1	1.782	1.423
x2 = 0.8496	855.94	847.51	25.2	24.2	1.611	1.292
x2 = 0.8998	835.44	827.13	24.3	23.3	1.454	1.173
x2 = 0.95	813.26	805.04	23.3	22.3	1.305	1.06
